In experiment [1] the target is T1, 5-hydroxytryptamine receptor 3A (Homo sapiens, UniProt P46098).
T1 sequence (P46098 whole entry): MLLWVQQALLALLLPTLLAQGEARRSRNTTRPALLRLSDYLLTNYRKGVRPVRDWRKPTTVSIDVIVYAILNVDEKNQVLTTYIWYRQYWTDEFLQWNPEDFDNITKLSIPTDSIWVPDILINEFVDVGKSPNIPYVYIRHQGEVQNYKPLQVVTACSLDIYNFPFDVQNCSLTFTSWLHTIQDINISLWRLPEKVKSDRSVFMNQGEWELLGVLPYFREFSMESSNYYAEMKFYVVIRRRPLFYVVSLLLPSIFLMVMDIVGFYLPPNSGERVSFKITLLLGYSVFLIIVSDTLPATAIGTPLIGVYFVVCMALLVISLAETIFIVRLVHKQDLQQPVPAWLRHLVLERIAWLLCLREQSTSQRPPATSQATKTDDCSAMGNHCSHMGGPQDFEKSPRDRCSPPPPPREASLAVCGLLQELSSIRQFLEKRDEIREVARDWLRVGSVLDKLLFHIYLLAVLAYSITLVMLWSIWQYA
In kind it is functional.

The target in experiment [2] is Sodium-dependent dopamine transporter (Homo sapiens, UniProt Q01959).
Sequence of Sodium-dependent dopamine transporter (Q01959 whole entry): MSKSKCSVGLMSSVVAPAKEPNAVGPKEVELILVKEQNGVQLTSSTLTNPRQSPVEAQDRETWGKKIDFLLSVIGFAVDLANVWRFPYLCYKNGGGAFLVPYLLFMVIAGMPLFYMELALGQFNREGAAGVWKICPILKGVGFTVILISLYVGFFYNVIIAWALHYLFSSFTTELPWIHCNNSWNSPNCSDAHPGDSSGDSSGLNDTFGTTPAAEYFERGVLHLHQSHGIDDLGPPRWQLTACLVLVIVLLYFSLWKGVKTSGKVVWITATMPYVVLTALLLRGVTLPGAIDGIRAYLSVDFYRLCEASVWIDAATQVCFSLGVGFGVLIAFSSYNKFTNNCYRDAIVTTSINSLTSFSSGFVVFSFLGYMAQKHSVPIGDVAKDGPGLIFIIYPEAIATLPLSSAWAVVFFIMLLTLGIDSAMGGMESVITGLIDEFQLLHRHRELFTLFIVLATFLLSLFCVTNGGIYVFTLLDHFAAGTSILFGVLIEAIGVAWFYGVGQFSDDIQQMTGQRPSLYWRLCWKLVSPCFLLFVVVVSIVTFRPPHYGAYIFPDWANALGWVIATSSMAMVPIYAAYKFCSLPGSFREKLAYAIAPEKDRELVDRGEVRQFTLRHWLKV
Experiment [3] deals with Sodium-dependent noradrenaline transporter (Homo sapiens, UniProt P23975).
Sequence of Sodium-dependent noradrenaline transporter (P23975 whole entry): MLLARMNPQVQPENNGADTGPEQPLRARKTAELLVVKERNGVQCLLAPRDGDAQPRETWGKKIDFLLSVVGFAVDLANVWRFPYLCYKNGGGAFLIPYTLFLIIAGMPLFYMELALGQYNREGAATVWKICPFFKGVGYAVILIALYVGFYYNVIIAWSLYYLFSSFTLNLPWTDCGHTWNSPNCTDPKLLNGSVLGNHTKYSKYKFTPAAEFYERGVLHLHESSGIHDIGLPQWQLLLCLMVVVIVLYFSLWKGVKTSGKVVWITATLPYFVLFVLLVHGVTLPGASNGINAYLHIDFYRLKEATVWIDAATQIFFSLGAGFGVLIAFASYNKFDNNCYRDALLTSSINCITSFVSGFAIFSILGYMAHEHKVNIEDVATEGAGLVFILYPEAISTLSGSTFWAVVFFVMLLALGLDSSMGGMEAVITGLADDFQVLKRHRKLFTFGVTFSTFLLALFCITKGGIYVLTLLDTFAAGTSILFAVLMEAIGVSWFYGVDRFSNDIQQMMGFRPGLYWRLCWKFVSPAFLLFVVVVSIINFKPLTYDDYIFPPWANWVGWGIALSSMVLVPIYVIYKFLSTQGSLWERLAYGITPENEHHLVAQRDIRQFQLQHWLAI
The next experiment has as its target D(3) dopamine receptor (Homo sapiens, UniProt P35462).
The target in a further experiment is T2, Thromboxane A2 receptor (Homo sapiens, UniProt P21731).
T2 sequence (P21731 whole entry): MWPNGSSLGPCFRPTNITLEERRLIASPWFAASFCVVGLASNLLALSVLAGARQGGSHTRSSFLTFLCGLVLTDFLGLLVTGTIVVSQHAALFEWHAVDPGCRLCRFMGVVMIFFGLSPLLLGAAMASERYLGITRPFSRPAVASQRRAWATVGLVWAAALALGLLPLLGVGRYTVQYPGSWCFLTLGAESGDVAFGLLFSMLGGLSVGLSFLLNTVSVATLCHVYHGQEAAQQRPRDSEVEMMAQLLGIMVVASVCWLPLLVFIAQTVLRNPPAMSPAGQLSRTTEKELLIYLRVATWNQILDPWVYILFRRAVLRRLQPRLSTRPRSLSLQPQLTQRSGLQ

The target in experiment [4] is T3, 5-hydroxytryptamine receptor 2C (Homo sapiens, UniProt P28335).
T3 sequence (P28335 whole entry): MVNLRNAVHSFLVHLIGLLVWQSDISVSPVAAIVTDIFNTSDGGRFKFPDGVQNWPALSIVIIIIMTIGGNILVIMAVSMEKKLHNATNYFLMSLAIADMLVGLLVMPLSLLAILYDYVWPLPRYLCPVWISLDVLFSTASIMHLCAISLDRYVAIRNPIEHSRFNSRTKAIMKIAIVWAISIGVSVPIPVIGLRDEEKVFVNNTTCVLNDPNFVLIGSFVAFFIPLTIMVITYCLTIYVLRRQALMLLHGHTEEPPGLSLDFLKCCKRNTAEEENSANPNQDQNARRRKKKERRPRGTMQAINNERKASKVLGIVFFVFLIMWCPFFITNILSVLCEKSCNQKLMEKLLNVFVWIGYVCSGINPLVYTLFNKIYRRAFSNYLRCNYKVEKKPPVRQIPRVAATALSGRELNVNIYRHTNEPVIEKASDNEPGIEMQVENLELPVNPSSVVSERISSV

Another experiment addresses T4, B2 bradykinin receptor (Homo sapiens, UniProt P30411).
T4 sequence (P30411 whole entry): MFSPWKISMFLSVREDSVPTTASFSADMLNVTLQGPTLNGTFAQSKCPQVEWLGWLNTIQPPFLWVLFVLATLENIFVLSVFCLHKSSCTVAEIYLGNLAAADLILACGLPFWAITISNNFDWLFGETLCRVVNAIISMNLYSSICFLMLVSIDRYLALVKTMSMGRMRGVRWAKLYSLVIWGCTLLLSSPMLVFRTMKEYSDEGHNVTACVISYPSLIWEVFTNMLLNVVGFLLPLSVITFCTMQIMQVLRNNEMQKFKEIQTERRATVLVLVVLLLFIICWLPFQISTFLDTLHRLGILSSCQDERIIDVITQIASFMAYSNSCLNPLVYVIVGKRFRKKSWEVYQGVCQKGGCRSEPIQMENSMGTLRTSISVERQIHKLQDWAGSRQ

Experiment [5] addresses cGMP-inhibited 3',5'-cyclic phosphodiesterase 3A (Homo sapiens, UniProt Q14432). The class given is functional.
Experiment [6] addresses Glutamate receptor ionotropic, NMDA 1 (Rattus norvegicus, UniProt P35439).
Experiment [7] deals with T5, Cholecystokinin receptor type A (Homo sapiens, UniProt P32238).
T5 sequence (P32238 whole entry): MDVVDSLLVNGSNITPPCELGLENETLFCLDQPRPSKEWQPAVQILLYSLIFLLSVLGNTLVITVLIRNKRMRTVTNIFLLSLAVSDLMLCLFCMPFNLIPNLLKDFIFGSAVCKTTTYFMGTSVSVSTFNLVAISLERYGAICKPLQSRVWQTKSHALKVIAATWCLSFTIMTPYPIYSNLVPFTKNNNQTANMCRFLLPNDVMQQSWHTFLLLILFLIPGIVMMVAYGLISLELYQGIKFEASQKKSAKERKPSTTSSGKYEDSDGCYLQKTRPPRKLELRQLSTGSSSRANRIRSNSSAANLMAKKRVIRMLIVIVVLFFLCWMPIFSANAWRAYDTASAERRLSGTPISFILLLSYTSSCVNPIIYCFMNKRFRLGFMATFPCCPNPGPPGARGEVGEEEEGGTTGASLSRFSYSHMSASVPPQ

The target in experiment [8] is T6, Type-1 angiotensin II receptor (Homo sapiens, UniProt P30556).
T6 sequence (P30556 whole entry): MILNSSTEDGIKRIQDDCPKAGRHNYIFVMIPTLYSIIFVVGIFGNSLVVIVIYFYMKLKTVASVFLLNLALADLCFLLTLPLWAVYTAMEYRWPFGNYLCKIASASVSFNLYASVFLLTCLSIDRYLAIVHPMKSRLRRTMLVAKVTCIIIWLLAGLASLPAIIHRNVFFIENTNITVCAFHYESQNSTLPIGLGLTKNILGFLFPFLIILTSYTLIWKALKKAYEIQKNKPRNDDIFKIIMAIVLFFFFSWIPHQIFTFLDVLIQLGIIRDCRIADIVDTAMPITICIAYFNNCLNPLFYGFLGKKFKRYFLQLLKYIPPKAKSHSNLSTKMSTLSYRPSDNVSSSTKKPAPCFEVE

Another experiment addresses Vasopressin V2 receptor (Homo sapiens, UniProt P30518).
The target in experiment [9] is Delta-type opioid receptor (Homo sapiens, UniProt P41143).
Sequence of Delta-type opioid receptor (P41143 whole entry): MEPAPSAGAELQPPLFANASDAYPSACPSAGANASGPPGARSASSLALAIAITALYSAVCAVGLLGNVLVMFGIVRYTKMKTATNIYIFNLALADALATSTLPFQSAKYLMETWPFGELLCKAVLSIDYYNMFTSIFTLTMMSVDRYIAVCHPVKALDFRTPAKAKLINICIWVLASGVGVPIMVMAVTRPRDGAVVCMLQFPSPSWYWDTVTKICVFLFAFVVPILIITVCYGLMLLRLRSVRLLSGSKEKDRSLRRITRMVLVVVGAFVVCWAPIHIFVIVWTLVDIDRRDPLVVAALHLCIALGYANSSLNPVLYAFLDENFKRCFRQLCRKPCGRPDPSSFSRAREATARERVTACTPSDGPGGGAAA

A value given as a limit tells only on which side of the number the result lay.
Note: assay procedure not described here.

Sequence of Vasopressin V2 receptor (P30518 whole entry): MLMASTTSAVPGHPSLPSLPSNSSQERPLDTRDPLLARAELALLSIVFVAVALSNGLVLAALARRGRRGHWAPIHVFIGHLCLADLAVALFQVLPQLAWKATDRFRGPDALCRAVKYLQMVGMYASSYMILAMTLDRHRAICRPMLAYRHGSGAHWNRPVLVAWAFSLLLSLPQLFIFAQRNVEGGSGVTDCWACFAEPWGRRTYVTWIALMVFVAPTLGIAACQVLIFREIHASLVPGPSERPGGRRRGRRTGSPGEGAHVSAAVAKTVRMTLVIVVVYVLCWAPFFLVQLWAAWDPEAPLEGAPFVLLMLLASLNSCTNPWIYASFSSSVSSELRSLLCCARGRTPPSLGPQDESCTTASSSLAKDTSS
Sequence of cGMP-inhibited 3',5'-cyclic phosphodiesterase 3A (Q14432 whole entry): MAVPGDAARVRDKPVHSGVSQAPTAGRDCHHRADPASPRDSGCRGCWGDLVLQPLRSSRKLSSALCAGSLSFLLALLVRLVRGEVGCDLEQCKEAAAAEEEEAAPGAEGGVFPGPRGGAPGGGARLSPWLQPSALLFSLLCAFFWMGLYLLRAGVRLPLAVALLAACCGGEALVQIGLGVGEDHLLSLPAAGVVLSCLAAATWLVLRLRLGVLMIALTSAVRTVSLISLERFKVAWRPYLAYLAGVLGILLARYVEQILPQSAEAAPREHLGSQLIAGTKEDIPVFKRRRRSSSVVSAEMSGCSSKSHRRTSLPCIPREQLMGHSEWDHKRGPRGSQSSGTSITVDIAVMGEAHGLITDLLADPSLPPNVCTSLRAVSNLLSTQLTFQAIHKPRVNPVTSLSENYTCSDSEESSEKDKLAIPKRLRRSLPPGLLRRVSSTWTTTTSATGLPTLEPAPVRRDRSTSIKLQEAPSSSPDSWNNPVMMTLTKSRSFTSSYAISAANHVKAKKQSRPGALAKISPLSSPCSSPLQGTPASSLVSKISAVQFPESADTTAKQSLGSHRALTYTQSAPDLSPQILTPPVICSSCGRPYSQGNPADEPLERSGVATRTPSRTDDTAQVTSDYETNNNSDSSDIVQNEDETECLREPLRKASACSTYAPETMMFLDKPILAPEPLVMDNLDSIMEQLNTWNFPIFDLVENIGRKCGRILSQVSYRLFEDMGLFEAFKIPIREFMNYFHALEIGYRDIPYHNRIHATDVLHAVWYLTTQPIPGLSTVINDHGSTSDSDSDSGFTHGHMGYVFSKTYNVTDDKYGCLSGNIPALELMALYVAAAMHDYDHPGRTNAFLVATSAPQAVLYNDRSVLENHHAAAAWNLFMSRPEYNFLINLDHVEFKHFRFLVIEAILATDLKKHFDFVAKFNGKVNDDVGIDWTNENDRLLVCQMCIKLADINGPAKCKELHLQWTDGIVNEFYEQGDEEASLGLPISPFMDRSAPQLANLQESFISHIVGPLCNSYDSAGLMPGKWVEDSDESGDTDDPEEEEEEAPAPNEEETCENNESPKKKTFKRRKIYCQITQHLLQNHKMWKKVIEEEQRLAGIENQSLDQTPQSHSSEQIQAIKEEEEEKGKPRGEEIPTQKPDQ
Sequence of D(3) dopamine receptor (P35462 whole entry): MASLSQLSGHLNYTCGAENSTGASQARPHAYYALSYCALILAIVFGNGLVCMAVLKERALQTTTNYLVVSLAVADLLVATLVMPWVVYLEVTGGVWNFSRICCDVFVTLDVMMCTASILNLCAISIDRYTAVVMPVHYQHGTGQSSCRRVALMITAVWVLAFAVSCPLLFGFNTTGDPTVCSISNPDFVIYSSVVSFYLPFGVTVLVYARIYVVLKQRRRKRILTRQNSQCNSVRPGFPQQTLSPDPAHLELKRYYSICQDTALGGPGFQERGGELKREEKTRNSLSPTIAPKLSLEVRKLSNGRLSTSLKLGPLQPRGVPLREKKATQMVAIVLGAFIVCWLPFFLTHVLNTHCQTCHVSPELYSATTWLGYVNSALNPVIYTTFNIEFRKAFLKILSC

One may read the AC50 as the concentration giving half of the maximal activity seen. Read a low AC50 as greater potency. Consider `CC(C(=O)O)c1ccc(CC2CCCC2=O)cc1` (centres undefined) [LOXOPROFEN], for which the AC50 (in [1]; in [2]; in [3]; at D(3) dopamine receptor; at Thromboxane A2 receptor; in experiment [4]) was > 30 µM each time. Moreover, the AC50 (on B2 bradykinin receptor; in experiment [5]; in experiment [6]; in experiment [7]; in [8]; at Vasopressin V2 receptor) was > 30 µM throughout. Also, the half-maximal activity concentration (AC50) in [9] is > 30 µM.
For the compound `CCC1(c2ccccc2)CCC(=O)NC1=O` (centres undefined) [GLUTETHIMIDE], the concentration at half-maximal activity (AC50) was > 30 µM in [1]; > 10 µM in experiment [2]; > 10 µM in experiment [3]; > 30 µM on D(3) dopamine receptor; > 10 µM on Thromboxane A2 receptor; > 30 µM in [4]. In addition, the AC50 on B2 bradykinin receptor is > 10 µM; in [5], > 30 µM; in experiment [6] it was > 10 µM; in experiment [7] it was > 10 µM; in experiment [8], > 10 µM; at Vasopressin V2 receptor, > 10 µM. Also, the AC50 in experiment [9] is > 30 µM.
Consider `CCC(C)C(CC)C(N)=O` (centres undefined) [VALNOCTAMIDE], for which the AC50 (in [1]; in experiment [2]; in experiment [3]; on D(3) dopamine receptor; at Thromboxane A2 receptor; in experiment [4]) was > 30 µM throughout. The concentration at half-maximal activity (AC50) (at B2 bradykinin receptor; in experiment [5]; in experiment [6]; in experiment [7]; in experiment [8]; on Vasopressin V2 receptor) was > 30 µM each time. In addition, in [9], the AC50 was > 30 µM.

(Values after ChEMBL document CHEMBL5291721, “A preclinical secondary pharmacology resource illuminates target-adverse drug reaction associations of marketed drugs” (Nat Commun, 2023).)
